Reference: article PMC11874007, “Switching Roles—Exploring Concentration-Dependent Agonistic versus Antagonistic Behavior of Integrin Ligands” (Journal of Medicinal Chemistry, 2025)

How the values were obtained:
Assay type in all cases: cell-based
[1] = test system: FAK, p-FAK, p44/42erk-1/2, p-p44/42erk-1/2 in α5β1+ OV-MZ-6 cells; experiment: Western blot of FAK and p44/42erk-1/2 expression and activation, OV-MZ-6 cells; conditions: for p-FAK, transient elevation, n-fold of untreated cells: concentration not specified
Description: Since agonistic ligand performance requires integrin activation and signaling, by Western blot analysis, we studied whether the different ligands alter the expression levels and activation states of FAK and p44/42^(erk-1/2). For this, the respective target integrin-expressing tumor cell types were incubated with the corresponding subtype-selective ligand at a concentration of 1 μM for 24 h (Figure 8). […] Signal intensities of FAK and p44/42^(erk-1/2) expression and activation (p-FAK and p-p44/42^(erk-1/2)) on Western blots were evaluated by densitometry. Data are depicted as GAPDH-normalized fluorescence signal intensities as n-fold, by setting values obtained for the respective untreated cells to “1”. […] MAPK p44/42^(erk-1/2) expression was approximately 2.2-fold augmented, p44/42^(erk-1/2) by approximately 2.5-fold. It also raised activation of p-FAK and p-p44/42^(erk-1/2) by approximately 2.2-fold and 3.1-fold, respectively, in α5β1+ OV-MZ-6 cells. […] Additionally, it raised FAK (approximately 1.7-fold) and p-p44/42^(erk-1/2) (approximately 2.4-fold) in α5β1+ OV-MZ-6 cells.
Figure 8 Effects of ligands on cellular expression and activation of integrin-related signaling molecules FAK and p44/42^(erk-1/2). […] Signal intensities for FAK and p-FAK, respectively, were evaluated by use of the Bio-Rad Imager Gel Doc XR+ and a ChemiDoc XRS+ Systems and the software Image Lab. Shown are typical representative Western blot images and the corresponding histograms depicting GAPDH-normalized signal intensities as n-fold by setting the values obtained for untreated cells to “1” (drawn as black line). For each cell line, cutouts of identical gels are depicted.
In order to capture early and transient changes in signaling activation following ligand treatment, we next reduced the observation periods to 5, 30, or 60 min and assessed FAK expression and activation. […] Depicted are typical Western blot images and the corresponding densitometrical evaluations of GAPDH-normalized signal intensities as n-fold, by setting that of the respective untreated cell type to “1” (Figure 9). […]
The kinases (p-)p44/42^(erk-1/2) and (p-)FAK were detected as previously published.[15],[8] Briefly, cells were grown for 18 h on six-well plates in DMEM (0.45 Mio cells/well). After medium exchange, fresh medium with L1–L5 (concentration: 1.0 μM, 2 mL/well) was added, and cells were incubated for another 24 h at 37 °C. In a second series, cells were incubated with L1–L5 (1 μM or 1 nM) for 5, 30, or 60 min. Thereafter, the cellular proteins were extracted and processed by Western blotting. Proteins were visualized using the Pierce ECL chemiluminescent substrate (Thermo Fisher Scientific). Band signal intensities for (p-)p44/42^(erk-1/2) and (p-)FAK were evaluated using the Bio-Rad Imager Gel Doc XR + and ChemiDoc XRS + Systems and the software Image Lab. Differences in protein loading and blotting efficiency were normalized by reprobing the membranes with a monoclonal antibody directed to GAPDH. Signal intensities for protein bands of interest were normalized to those recorded for GAPDH. Typical Western blot images are depicted together with histograms summarizing the mean values of normalized fluorescence signal intensities as n-fold, by setting those obtained for untreated cells to “1”.

α5β1+ OV-MZ-6 cells = experiment: Wound scratch cell migration assay, OV-MZ-6 cells; conditions: for Effect on wound gap closure / cell migration: OV-MZ-6 cells
Description: (§1) As a biological readout for integrin signaling, we analyzed ligand effects on cell adhesion and migration by wound scratch assays (Figure 10A,B). […] Microscopical images were taken directly after wounding the cell monolayers and then after 9, 24, 48, and 72 h, respectively.
(§2) Figure 10 (A) Effect of integrin ligands on cancer cell migration. […] Microscopical measurements of wound gaps were taken directly after setting the wound scratch and then after 9, 24, 48, and 72 h, respectively. Wound scratch assays were repeated at least three times. The extent of wound gap closure [%]/cell coverage was calculated by a python script utilizing Canny’s Edge Detection algorithm as described under Materials and summarized in the corresponding histograms (see also Scheme S5 in the Supporting Information). (B) Adhesion of M21, OV-MZ-6, and HN cells in the presence of the respective integrin targeting ligand at low (1 nM) and high (1 μM) concentrations. […] Depicted are typical microscopical images of the respective cell monolayers.
(§3) The assays were performed according to a modified protocol as previously published.[94] Cells were cultivated on fibronectin-coated 12-well cell culture plates until cell monolayers reached an approximately 80% confluency. Then, the wound scratch was set utilizing a 200 μL pipet tip. Subsequently, fresh culture medium was added in the absence or presence of L1–L5 (concentration: 1 μM or 1 nM), and microscopical images (Zeiss, Oberkochen, Germany) were taken at two identical positions of the wound gap directly after wounding and then at 9, 24, 48, or 72 h of further cell cultivation. Each wound scratch assay was repeated three times. A custom python script was implemented to analyze wound gap closure over time: after cropping the images, we used the OpenCV[95] implementation of Canny’s Edge Detection Algorithm[96] to ensure reliable measurements even with variable lighting conditions.[97] As a first step, a 5 × 5 Gaussian filter was applied to remove background noise. The smoothened images were then filtered by a Sobel kernel[98] and the magnitude and direction of the intensity gradient of the images calculated. Then, a non-maximum suppression algorithm was applied to identify relevant pixels that presumably contribute to edges. In a final step, threshold hysteresis was utilized to distinguish true edges from variations in intensity or the remaining background noise. The resulting images were then segmented and binarized by use of a grid filter and analyzed with respect to cell-covered area relative to the start image of each series.
Scheme S5. Effect of integrin ligands on cancer cell migration (control cells to Fig. 10A in the main manuscript). a) Integrin αvβ3- OV-MZ-6 cells, α5β1- M21 cells, α5β1+ and αvβ3- and […]
mages of wound gaps were taken directly after setting the wound scratch and then after […], respectively. Wound scratch assays were repeated at least 3 times. The extent of wound gap closure [%]/cell coverage was calculated by a python script utilizing Canny’s Edge Detection algorithm11 as described in the Experimental Section and summarized in the corresponding histograms.
(1 picture or pasted object on this page, not shown here)

αvβ3+ M21 cells = experiment: Wound scratch cell migration assay, M21 cells
Description: as §1, §2, §3

[2] = concentration not specified or both, within 60 min

Compound | FAK expression versus untreated cells [1, 2] | p-FAK, transient elevation, n-fold of untreated cells ([1]; within 60 min) | Effect on wound gap closure (α5β1+ OV-MZ-6 cells; αvβ6- OV-MZ-6 cells, concentration not specified) | FAK levels, n-fold of untreated cells ([1]; 1 nM, 5, 30 or 60 min) | p-FAK, highest or initial elevation, n-fold of untreated cells ([1]; 1 nM, 5, 30 or 60 min) | p-FAK, highest induction at 30 min, n-fold of untreated cells ([1]; 1 μM) | FAK expression versus untreated cells ([1]; 1 μM, 5, 30 or 60 min) | (p-)FAK and (p-)p-44/42erk-1/2 ([1]; 1 μM, 24 h) | Effect on wound gap closure / cell migration (αvβ3+ M21 cells; 1 nM) | Effect on wound gap closure / cell migration (αvβ3+ M21 cells; 1 μM) | Effect on wound gap closure / cell migration (α5β1+ OV-MZ-6 cells; 1 nM) | Effect on wound gap closure / cell migration (α5β1+ OV-MZ-6 cells; 1 μM) | FAK, n-fold of untreated cells ([1]; 1 μM, 24 h, GAPDH-normalized) | p-p44/42erk-1/2, n-fold of untreated cells ([1]; 1 μM, 24 h, GAPDH-normalized) | Cell coverage (wound gap closure) (αvβ3+ M21 cells; 1 μM, within 72 h)
c(FRGDLAFp(NMe)K) [L3] | no effect | approximately 2.9 fold | delayed wound gap closure |  |  |  |  |  |  |  |  |  |  |  | 
C#CCCC(=O)NCCCOc1cc(C)c(C(=O)N[C@@H](CNC(=O)CNC(=O)c2cccc(NC(=N)N)c2)C(=O)O)c(C)c1 [L5, (S)-2-(2,6-Dimethyl-4-(3-(pent-4-ynamido)propoxy)benzamido)-3-(2-(3-guanidinobenzamido)acetamido)propanoic Acid] |  |  |  | approximately 1.6 fold | approximately threefold | approximately fourfold | equal to or only slightly higher than that in untreated cells | did not modulate | did not alter their migratory capacity | no abrogation of cell migration was observed | did not alter their migratory capacity | blocked migration |  |  | 
C#CCCC(=O)NCCCOc1ccc(C(=O)N[C@H](CC(=O)O)Cc2ccc(OCCCNc3cc(OC)ccn3)cc2)cc1 [L1, (S)-4-(4-(3-((4-Methoxypyridin-2-yl)amino)propoxy)phenyl)-3-(4-(3-(pent-4-ynamido)propoxy)benzamido)butanoic Acid] | transient slight increase | approximately twofold |  |  |  |  |  |  | enhanced wound gap closure | less effective than cilengitide (L2) in blocking cell migration | not observed | more efficient blockade of cell migration than in M21 cells | approximately 1.7 fold | approximately 2.4 fold | approximately 80%
